Test results: US7772241B2, “Variolin derivatives and their use as antitumor agents” (Pharma Mar S.A., priority 2001, dated 2010)

Tests used:
PANC-1 = assay: Inhibition of cells growth by colorimetric (SRB) assay, PANC-1; details: for GI50 / CC50: Homo sapiens, PANC-1, 48 h; for GI50: read-out: GI50 PANC-1, SRB assay, 48 hours exposure; for CC50: read-out: LC50 PANC-1, SRB assay, 48 hours exposure; for TGI PANC-1: SRB assay, 48 hours exposure
Text: (§1) The finality of these assays is to interrupt the growth of a “in vitro” tumor cell culture by means a continued exhibition of the cells to the sample to be testing.
(§2) This form of the assay employs 96 well cell culture microplates of 9 mm diameter (Faircloth, 1988; Mosmann, 1983). Most of the cell lines are obtained from American Type Culture Collection (ATCC) derived from different human cancer types.
(§3) Cells are maintained in RPMI 1640 10% FBS, supplemented with 0.1 g/l penicillin and 0.1 g/l streptomycin sulphate and then incubated at 37° C., 5% CO2 and 98% humidity. For the experiments, cells were harvested from subconfluent cultures using trypsin and resuspended in fresh medium before plating.
(§4) Cells are seeded in 96 well microtiter plates, at 5×10^3 cells per well in aliquots of 195 μl medium, and they are allowed to attach to the plate surface by growing in drug free medium for 18 hours. Afterward, samples are added in aliquots of 5 μl in a ranging from 10 to 10^−8 μg/ml, dissolved in DMSO/EtOH/PBS (0.5:0.5:99). After 48 hours exposure, the antitumor effect are measured by the SRB methodology: cells are fixed by adding 50 μl of cold 50% (wt/vol) trichloroacetic acid (TCA) and incubating for 60 minutes at 4° C. Plates are washed with deionized water and dried. One hundred μl of SRB solution (0.4% wt/vol in 1% acetic acid) is added to each microtiter well and incubated for 10 minutes at room temperature. Unbound SRB is removed by washing with 1% acetic acid. Plates are air dried and bound stain is solubilized with Tris buffer. Optical densities are read on a automated spectrophotometric plate reader at a single wavelength of 490 nm.
(§5) The values for mean +/−SD of data from triplicate wells are calculated. Some parameters for cellular responses can be calculated: GI=growth inhibition, TGI=total growth inhibition (cytostatic effect) and LC=cell killing (cytotoxic effect).

SK-OV-3 = assay: Inhibition of cells growth by colorimetric (SRB) assay, SK-OV-3; details: for GI50 / CC50: Homo sapiens, SK-OV-3, 48 h; for GI50: read-out: GI50 SKOV-3, SRB assay, 48 hours exposure; for CC50: read-out: LC50 SKOV-3, SRB assay, 48 hours exposure; for TGI SKOV-3: SRB assay, 48 hours exposure
Text: as §1, §2, §3, §4, §5

SK-MEL-28 = assay: Inhibition of cells growth by colorimetric (SRB) assay, SK-MEL-28; details: for GI50 / CC50: Homo sapiens, SK-MEL-28, 48 h; for GI50: read-out: GI50 MEL-28, SRB assay, 48 hours exposure; for CC50: read-out: LC50 MEL-28, SRB assay, 48 hours exposure; for TGI MEL-28: SRB assay, 48 hours exposure
Text: as §1, §2, §3, §4, §5

A-549 = assay: Inhibition of cells growth by colorimetric (SRB) assay, A-549; details: for GI50 / CC50: Homo sapiens, A549, 48 h; for GI50: read-out: GI50 A-549, SRB assay, 48 hours exposure; for CC50: read-out: LC50 A-549, SRB assay, 48 hours exposure; for TGI A-549: SRB assay, 48 hours exposure
Text: as §1, §2, §3, §4, §5

IGROV-ET = assay: Inhibition of cells growth by colorimetric (SRB) assay, IGROV-ET; details: for GI50 / CC50: Homo sapiens, 48 h; for GI50: read-out: GI50 IGROV-ET, SRB assay, 48 hours exposure; for CC50: read-out: LC50 IGROV-ET, SRB assay, 48 hours exposure; for TGI IGROV-ET: SRB assay, 48 hours exposure
Text: as §1, §2, §3, §4, §5

K-562 = assay: Inhibition of cells growth by colorimetric (SRB) assay, K-562; details: for GI50 / CC50: Homo sapiens, K562, 48 h; for GI50: read-out: GI50 K-562, SRB assay, 48 hours exposure; for CC50: read-out: LC50 K-562, SRB assay, 48 hours exposure; for TGI K-562: SRB assay, 48 hours exposure
Text: as §1, §2, §3, §4, §5

IGROV-1 = assay: Inhibition of cells growth by colorimetric (SRB) assay, IGROV-1; details: for GI50 / CC50: Homo sapiens, IGROV-1, 48 h; for GI50: read-out: GI50 IGROV, SRB assay, 48 hours exposure; for CC50: read-out: LC50 IGROV, SRB assay, 48 hours exposure; for TGI IGROV: SRB assay, 48 hours exposure
Text: as §1, §2, §3, §4, §5

LoVo = assay: Inhibition of cells growth by colorimetric (SRB) assay, LoVo; details: for GI50 / CC50: Homo sapiens, LoVo, 48 h; for GI50: read-out: GI50 LOVO, SRB assay, 48 hours exposure; for CC50: read-out: LC50 LOVO, SRB assay, 48 hours exposure; for TGI LOVO: SRB assay, 48 hours exposure
Text: as §1, §2, §3, §4, §5

LoVo-Dox = assay: Inhibition of cells growth by colorimetric (SRB) assay, LoVo-Dox; details: for GI50 / CC50: Homo sapiens, 48 h; for GI50: read-out: GI50 LOVO-DOX, SRB assay, 48 hours exposure; for CC50: read-out: LC50 LOVO-DOX, SRB assay, 48 hours exposure; for TGI LOVO-DOX: SRB assay, 48 hours exposure
Text: as §1, §2, §3, §4, §5

HT-29 = assay: Inhibition of cells growth by colorimetric (SRB) assay, HT-29; details: for GI50 / CC50: Homo sapiens, HT-29, 48 h; for GI50: read-out: GI50 HT-29, SRB assay, 48 hours exposure; for CC50: read-out: LC50 HT-29, SRB assay, 48 hours exposure; for TGI HT-29: SRB assay, 48 hours exposure
Text: as §1, §2, §3, §4, §5

DU-145 = assay: Inhibition of cells growth by colorimetric (SRB) assay, DU-145; details: for GI50 / CC50: Homo sapiens, DU-145, 48 h; for GI50: read-out: GI50 DU-145, SRB assay, 48 hours exposure; for CC50: read-out: LC50 DU-145, SRB assay, 48 hours exposure; for TGI DU-145: SRB assay, 48 hours exposure
Text: as §1, §2, §3, §4, §5

LNCaP = assay: Inhibition of cells growth by colorimetric (SRB) assay, LNCaP; details: for GI50 / CC50: Homo sapiens, LNCaP, 48 h; for GI50: read-out: GI50 LN-caP, SRB assay, 48 hours exposure; for CC50: read-out: LC50 LN-caP, SRB assay, 48 hours exposure; for TGI LN-caP: SRB assay, 48 hours exposure
Text: as §1, §2, §3, §4, §5

SMILES	GI50 (PANC-1) [µM]	CC50 (PANC-1) [µM]	TGI PANC-1 (PANC-1)	GI50 (SK-OV-3) [nM]	CC50 (SK-OV-3) [µM]	TGI SKOV-3 (SK-OV-3)	GI50 (SK-MEL-28) [nM]	CC50 (SK-MEL-28) [µM]	TGI MEL-28 (SK-MEL-28)	GI50 (A-549) [µM]	CC50 (A-549) [µM]	TGI A-549 (A-549)	GI50 (IGROV-ET) [nM]	CC50 (IGROV-ET) [µM]	TGI IGROV-ET (IGROV-ET)	GI50 (K-562) [µM]	CC50 (K-562) [µM]	TGI K-562 (K-562)	GI50 (IGROV-1) [nM]	CC50 (IGROV-1) [µM]	also measured
Nc1nccc2c(-c3ccnc(O)n3)c3c(O)ccnc3n12 [Compound 106]	6.44	24.5	1.71E−05	5730	24.5	1.51E−05	8870	24.5	2.45E−05	18.2	24.5	2.45E−05	4970	24.4	1.10E−05	10.6	24.5	2.45E−05	6690	24.1	TGI IGROV (IGROV-1): 1.27E−05; GI50 (LoVo): 24500 nM; CC50 (LoVo): 24.5 µM; TGI LOVO (LoVo): 2.45E−05; GI50 (LoVo-Dox): 8180 nM; CC50 (LoVo-Dox): 24.5 µM; TGI LOVO-DOX (LoVo-Dox): 2.45E−05; GI50 (HT-29): 24.5 µM; CC50 (HT-29): 24.5 µM; TGI HT-29 (HT-29): 2.45E−05; GI50 (DU-145): 16200 nM; CC50 (DU-145): 24.5 µM; TGI DU-145 (DU-145): 2.45E−05; GI50 (LNCaP): 6.42 µM; CC50 (LNCaP): 24.5 µM; TGI LN-caP (LNCaP): 1.64E−05
CSc1nccc(-c2c3c(Cl)ccnc3n3c(N)nccc23)n1 [Compound 107]	4.99	29.2	2.92E−05	195	29.2	3.35E−06	24.8	29.2	5.19E−06	4.52	29.2	2.70E−05	1570	29.2	1.44E−05	2.18	29.2	9.19E−06	2950	23.7	TGI IGROV (IGROV-1): 8.34E−06; GI50 (LoVo): 173 nM; CC50 (LoVo): 29.2 µM; TGI LOVO (LoVo): 3.79E−06; GI50 (LoVo-Dox): 127 nM; CC50 (LoVo-Dox): 23 µM; TGI LOVO-DOX (LoVo-Dox): 5.98E−07; GI50 (HT-29): 1.11 µM; CC50 (HT-29): 29.2 µM; TGI HT-29 (HT-29): 2.92E−05; GI50 (DU-145): 653 nM; CC50 (DU-145): 29.2 µM; TGI DU-145 (DU-145): 1.44E−05; GI50 (LNCaP): 3.38 µM; CC50 (LNCaP): 25.3 µM; TGI LN-caP (LNCaP): 9.25E−06
Nc1nccc(-c2c3c(Cl)ccnc3n3c(N)nccc23)n1 [Compound 113]	1.11	32.1	2.76E−05	1370	32.1	5.39E−06	2120	17.6	6.29E−06	4.3	21.4	9.59E−06	1300	32.1	6.00E−06	6.16	32.1	2.00E−05	2940	24.1	TGI IGROV (IGROV-1): 8.53E−06; GI50 (LoVo): 1260 nM; CC50 (LoVo): 32.1 µM; TGI LOVO (LoVo): 7.83E−06; GI50 (LoVo-Dox): 2350 nM; CC50 (LoVo-Dox): 32.1 µM; TGI LOVO-DOX (LoVo-Dox): 1.18E−05; GI50 (HT-29): 4.72 µM; CC50 (HT-29): 32.1 µM; TGI HT-29 (HT-29): 3.21E−05; GI50 (DU-145): 1510 nM; CC50 (DU-145): 32.1 µM; TGI DU-145 (DU-145): 6.26E−06; GI50 (LNCaP): 1.57 µM; CC50 (LNCaP): 15.6 µM; TGI LN-caP (LNCaP): 2.39E−06
